Laboratory results published in paper PMC8464850, “Sulfonium Ligands of the α7 nAChR” (Molecules, 2021).
Where a name gives a salt, the structure may show the parent alone.

Legend:
[1] = molecular target: T1, α7 nAChR (Homo sapiens, UniProt P36544); assay: Inhibition of α7 ACh-evoked responses; assay type: cell-based; conditions: for effect on 60 µM ACh response at 1 mM: compound 1 mM co-applied with 60 µM ACh
T1 construct: expressed in transfected cells; host or cells: Xenopus laevis oocytes (injected RNA)
Description: Figure 4 Effects sulfonium compounds on α7 ACh-evoked net-charge responses. (A) Effects of the sulfonium compounds at 100 µM co-applied with 60 µM relative to responses to 60 µM ACh applied alone. Data are the averages (±SEM) from seven or eight cells under each condition. (B) Effects of select sulfonium compounds at 1 mM co-applied with 60 µM relative to responses to 60 µM ACh applied alone. Data are the averages (±SEM) from seven or eight cells under each condition. Statistical significance was determined by pairwise t-test with p values corrected for multiple comparisons; * p < 0.05, ** p < 0.001.
The sulfonium compounds that were active with TQS but produced little inhibition of ACh response at a concentration of 100 µM were tested as inhibitors of ACh response at a concentration of 1 mM (Figure 4B).
We tested S8 across a range of concentrations for its ability to inhibit 60 µM ACh responses (Figure 5A). Note that we use 60 µM as an ACh control because this concentration gives nearly maximal (93%) net-charge responses, with the time course of the responses roughly following the speed of solution exchange. […] We tested whether inhibition of α7 responses by S8 was surmountable by increasing ACh concentration, consistent with a competitive mechanism of inhibition. However, since α7 responses to concentrations of ACh greater than 60 µM occur more rapidly than solution exchange in the chamber, we first pre-applied 5 µM S8 prior to the co-application of 5 µM S8 with either 60 µM or 1 mM ACh (Figure 5B). The 60 µM net-charge responses were reduced to 28 ± 2% of controls (n = 8) and 60 µM peak currents to 21 ± 3 % controls. The 1 mM net-charge responses were reduced to 56 ± 6 % of those obtained without S8 co-application, although the S8 co-application increased the peak-current amplitudes compared to 60 µM controls from 1.78 ± 0.15 to 3.72 ± 0.81 (n = 8).
Figure 5 Inhibition of α7 ACh-evoked responses by S8. (A) Concentration-response studies of α7 net-charge responses to 60 µM ACh co-applied with increasing concentrations of S8. To confirm the stability of the ACh responses, applications of ACh plus S8 were alternated with applications of ACh alone. Data are the averages of eight cells (±SEM). See text for curve-fit values. (B) Effects of 5 µM S8 on responses to either 60 µM or 1 mM ACh. The traces shown across the top are the averaged raw data from seven cells, each normalized to the peak current of the first ACh control response shown. In order to assure that the S8 was present at 5 µM throughout the ACh-evoked responses, a 30 s pre-application was made of 5 µM S8 alone. The lower traces show averaged responses to 60 µM or 1 mM ACh alone or with the 5 µM S8 pre- and co-application. The details of the data are described in Methods.
Experiments were conducted using OpusXpress 6000A (Molecular Devices, Union City, CA, USA). Both the voltage and current electrodes were filled with 3 M KCl. Oocytes were voltage-clamped at −60 mV at room temperature (24 °C). The oocytes were bath-perfused with Ringer’s solution (115 mM NaCl, 2.5 mM KCl, 1.8 mM CaCl2, 10 mM HEPES, and 1 μM atropine, pH 7.2) at 2 mL/min for α7 receptors, or 4 mL/min for heteromeric nAChR. To evaluate the effects of experimental compounds, responses were compared to control ACh-evoked responses, defined as the average of two initial applications of ACh made before test applications. ACh control concentrations were 60 µM for α7 receptors; 100 µM for α4(3)β2(2) and α3β4 receptors; 30 µM for α4β2α6β2β3 and muscle-type (αβ1εδ) receptors; and 10 µM for α4(3)β2(2) and α4(2)β2(2)α5 receptors.
Solutions were applied from 96-well plates via disposable tips. Drug applications were 12 s in duration, followed by 181 s washout periods for α7 receptors, or 6 s in duration followed by 301 s washout periods for heteromeric nAChR. […]

[2] = molecular target: T2, α4(2)β2(3) (Homo sapiens, UniProt P17787+P43681); assay: Activation of heteromeric nAChR by S1: α4(2)β2(3); assay type: cell-based
T2 construct: expressed in transfected cells; host or cells: Xenopus laevis oocytes (injected RNA)
Source text: Concatamers were used in order to obtain heteromeric receptors with known subunit composition. The β2-6-α4 concatamer was co-expressed with monomeric α4, β2, or α5 to obtain receptors with the composition α4(3)β2(2), α4(2)β2(3), or α4(2)β2(2)α5, respectively. A concatamer of five linked subunits was used to obtain the β3α4 β2α6β2 receptors. The α3β4 receptors were formed from the co-expression of α3 and β4 subunit monomers at equal ratios. Note that the data were initially measured relative to internal ACh control responses for each oocyte (Methods). Responses were subsequently adjusted for the relative values of the ACh controls and the ACh maximum responses for each of the various subtypes, determined in previous experiments.
Figure 6 Activation of heteromeric neuronal nAChR by S1. […] Data are the average peak currents (n = 6–8 oocytes ± SEM), measured relative to initial ACh control responses for each oocyte (concentrations listed in Methods). Responses were subsequently adjusted for the relative values of the ACh controls and the ACh maximum responses for each of the various subtypes, determined in previous experiments. […]
Solutions were applied from 96-well plates via disposable tips. […] The responses were calculated as both peak current amplitudes and net charge, as previously described. […] Multi-cell averages were calculated for comparisons of complex responses. […]

T1 sequence (P36544 23-502): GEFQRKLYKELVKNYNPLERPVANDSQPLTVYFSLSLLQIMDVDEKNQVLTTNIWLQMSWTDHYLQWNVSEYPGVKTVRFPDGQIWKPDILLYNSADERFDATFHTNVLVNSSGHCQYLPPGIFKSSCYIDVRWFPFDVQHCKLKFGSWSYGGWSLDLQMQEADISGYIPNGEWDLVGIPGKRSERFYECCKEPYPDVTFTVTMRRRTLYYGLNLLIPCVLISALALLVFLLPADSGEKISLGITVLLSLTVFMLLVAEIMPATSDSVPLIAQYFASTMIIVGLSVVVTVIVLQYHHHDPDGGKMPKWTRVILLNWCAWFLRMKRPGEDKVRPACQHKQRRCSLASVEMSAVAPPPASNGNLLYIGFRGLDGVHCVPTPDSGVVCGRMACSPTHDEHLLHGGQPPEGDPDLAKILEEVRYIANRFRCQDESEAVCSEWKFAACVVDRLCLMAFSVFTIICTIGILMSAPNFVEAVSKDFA
T2 sequence (P17787 26-502): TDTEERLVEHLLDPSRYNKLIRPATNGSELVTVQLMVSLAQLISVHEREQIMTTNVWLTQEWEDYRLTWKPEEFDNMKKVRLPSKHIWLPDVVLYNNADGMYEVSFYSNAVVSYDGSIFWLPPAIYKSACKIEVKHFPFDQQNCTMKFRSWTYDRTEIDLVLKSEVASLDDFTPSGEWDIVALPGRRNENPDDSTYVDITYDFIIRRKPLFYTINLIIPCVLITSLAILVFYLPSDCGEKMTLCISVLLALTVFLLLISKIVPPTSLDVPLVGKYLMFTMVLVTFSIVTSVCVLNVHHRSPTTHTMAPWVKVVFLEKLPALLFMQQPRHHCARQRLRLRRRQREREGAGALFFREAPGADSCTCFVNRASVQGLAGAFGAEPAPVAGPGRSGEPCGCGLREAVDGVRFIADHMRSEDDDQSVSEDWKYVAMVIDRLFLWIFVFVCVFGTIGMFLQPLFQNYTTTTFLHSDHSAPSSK
T2 sequence (P43681 29-627 limits assumed): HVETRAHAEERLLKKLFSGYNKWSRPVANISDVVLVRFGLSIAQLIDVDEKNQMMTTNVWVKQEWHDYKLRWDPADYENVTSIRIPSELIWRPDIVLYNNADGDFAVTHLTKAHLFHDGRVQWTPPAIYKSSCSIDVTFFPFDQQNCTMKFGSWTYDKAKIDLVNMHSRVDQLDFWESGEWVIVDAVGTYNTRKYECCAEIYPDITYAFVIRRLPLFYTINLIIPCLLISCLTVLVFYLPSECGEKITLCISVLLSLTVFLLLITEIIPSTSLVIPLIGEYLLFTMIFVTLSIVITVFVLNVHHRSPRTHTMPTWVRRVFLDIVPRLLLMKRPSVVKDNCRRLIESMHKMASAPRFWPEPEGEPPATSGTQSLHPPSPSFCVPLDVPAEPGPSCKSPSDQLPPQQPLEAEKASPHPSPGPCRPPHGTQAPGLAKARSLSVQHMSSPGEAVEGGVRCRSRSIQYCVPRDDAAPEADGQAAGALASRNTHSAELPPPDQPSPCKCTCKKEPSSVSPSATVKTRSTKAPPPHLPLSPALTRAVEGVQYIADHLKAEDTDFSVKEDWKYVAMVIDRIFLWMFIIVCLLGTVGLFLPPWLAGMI
T2 sequence (P17787 26-502): as the sequence (P17787 26-502) above

Row | Structure (SMILES) | effect on 60 µM ACh response at 1 mM [1] | inhibition of responses to 60 µM ACh ([1]; compound co-applied at 100 µM, net charge) | IMax (S1 Activation) ([2]; peak currents relative to ACh maximum) | EC50 ([2]; peak currents, unit inferred)
1 | C[S+](C)c1ccc(O)cc1 [Compound S9, (4-hydroxyphenyl)dimethylsulfonium methyl sulfate] | significant inhibition | no inhibition | – | –
2 | C[S+](C)C.[I-] [Compound S1, trimethylsulfonium iodide] | – | – | 0.89 ± 0.44 | 1060 ± 1240 µM
3 | C[S+](C)c1cc([N+](=O)[O-])ccc1O.[Br-] [Compound S10, (2-hydroxy-5-nitrophenyl)dimethylsulfonium bromide] | increased the amplitude of the ACh-evoked responses | – | – | –
